Assay results reported in patent US20120041185A1, “dTDP-BETA-D-FUCOFURANOSE, ITS PREPARATION METHOD AND USE” (TIANJIN BIOCHIP TECHNOLOGY CORPORATION, priority 2007, published 2012).

Experiments:
[1] = test system: Fcf1 (recombinant dTDP-D-GIcO reductase); test: Divalent cation requirements of Fcf1 (effects of cations on enzyme activity); assay type: biochemical, E. coli O52; conditions: for Transformation rate (%): in the presence of 5 mM divalent ion chloride, 100 without ion; for influence on conversion ratio / inhibition to enzyme activity: 5 mM divalent ion chloride
Experimental: 20 μl reactions in 0.5 ml centrifugal tube contain 2 mM dTDP-D-Glco, 3 mM NADPH, 50 mM Tris-HCl buffer (pH7.4), 5 mM divalent ion chloride and 0.25 μM recombinant dTDP-D-GIcO reductase protein purified in example 2. The reactions are proceeded at certain temperatures for 2 hours. Then add chloroform of equal volume to extract protein. The aqueous phase is detected by Beckman Coulter P/ACE MDQ capillary electrophoresis.

[2] = molecular target: T1, Fcf2 (recombinant dTDP-D-Glcfucofuranose mutase) (Escherichia coli, UniProt Q6E7F1); test: Divalent cation requirements of Fcf2 (effects of cations on enzyme activity); assay type: biochemical, E. coli O52; conditions: for Transformation rate (%): in the presence of 5 mM divalent ion, 9.5 without ion
T1 construct: The entire ORF encodes a protein composed of 377 amino acids; His6 (N); made in house; host or cells: E. coli BL21
T1 sequence (Q6E7F1 whole entry): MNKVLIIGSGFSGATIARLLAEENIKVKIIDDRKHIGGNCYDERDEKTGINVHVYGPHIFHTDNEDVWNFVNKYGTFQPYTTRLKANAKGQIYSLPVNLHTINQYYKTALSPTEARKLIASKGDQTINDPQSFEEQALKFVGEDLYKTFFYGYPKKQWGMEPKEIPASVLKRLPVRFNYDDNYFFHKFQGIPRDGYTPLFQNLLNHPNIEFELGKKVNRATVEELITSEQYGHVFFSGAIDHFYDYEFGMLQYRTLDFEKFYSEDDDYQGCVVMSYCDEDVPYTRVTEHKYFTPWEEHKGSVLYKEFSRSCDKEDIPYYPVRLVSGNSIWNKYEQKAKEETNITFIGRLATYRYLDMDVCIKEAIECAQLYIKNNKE
Experimental: 25 μl reactions in 0.5 ml centrifugal tube contain 2 mM dTDP-D-fucose, 50 mM Tris-HCl buffer (pH 7.4) 5 mM divalent ion chloride and 3.9 μM recombinant dTDP-D-Glcfucofuranose mutase protein purified in example 2. The reactions are proceeded at certain temperature for 3 hours. Then add chloroform of equal volume to extract protein. The aqueous phase is detected by Beckman Coulter P/ACE MDQ capillary electrophoresis.

SMILES | Transformation rate (%) [1] | Transformation rate (%) [2] | influence on conversion ratio / inhibition to enzyme activity [1] | inhibition to enzyme activity ([2]; 5 mM divalent ion)
[Ca+2].[Cl-].[Cl-] [Ca^2+, CaCl2] | 98.1% | 9.6% |  | 
[Cl-].[Cl-].[Co+2] [Co^2+, CoCl2] | 89.2% | 8.8% |  | 
[Cl][Cu][Cl] [Cu^2+, CuCl2] | 11.8% | 0% | highest inhibition | obvious inhibition
[Cl][Fe][Cl] [Fe^2+, FeCl2] | 90.5% | 9.1% |  | 
[Cl-].[Cl-].[Mg+2] [Mg^2+, MgCl2] | 100% | 9.7% | no influence | 
[Cl][Mn][Cl] [Mn^2+, MnCl2] | 100% | 5.4% | no influence | 
